Test results reported in US20230357310A1, “Saponin derivatives with improved therapeutic window” (priority 2019, published 2023).

system: EGFR expressing cells (HeLa); assay: cells; conditions: summary statement in the description

| Structure (SMILES) | endosomal escape enhancing activity (enhancement of cytotoxicity of ADC / effector molecules) |
| --- | --- |
| CC(=O)OC1C(C)OC(OC2C(C)OC(OC(=O)[C@]34CCC(C)(C)CC3C3=CCC5[C@@]6(C)CC[C@H](OC7OC(C(=O)NC(C)(CO)CO)C(O)C(OC8OCC(O)C(O)C8O)C7OC7OC(CO)C(O)C(O)C7O)[C@@](C)(C=O)C6CC[C@@]5(C)[C@]3(C)C[C@H]4O)C(OC3OC(C)C(OC4OCC(O)C(OC5OC(CO)C(O)C(O)C5O)C4O)C(O)C3O)C2O)C(O)C1OC1OCC(O)C(O)C1O (stereo partly drawn) [Molecule 3A] | display activity |
| CC(=O)OC1C(C)OC(OC2C(C)OC(OC(=O)[C@]34CCC(C)(C)CC3C3=CCC5[C@@]6(C)CC[C@H](OC7OC(C(=O)NC(C)(CO)CO)C(O)C(OC8OCC(O)C(O)C8O)C7OC7OC(CO)C(O)C(O)C7O)[C@@](C)(CO)C6CC[C@@]5(C)[C@]3(C)C[C@H]4O)C(OC3OC(C)C(OC4OCC(O)C(OC5OC(CO)C(O)C(O)C5O)C4O)C(O)C3O)C2O)C(O)C1OC1OCC(O)C(O)C1O (stereo partly drawn) [Molecule 9] | have the capacity to enhance the cytotoxic effect |
| CC1OC(OC2C(C)OC(OC(=O)[C@]34CCC(C)(C)CC3C3=CCC5[C@@]6(C)CC[C@H](OC7OC(C(=O)NC(C)(CO)CO)C(O)C(OC8OCC(O)C(O)C8O)C7OC7OC(CO)C(O)C(O)C7O)[C@@](C)(C=O)C6CC[C@@]5(C)[C@]3(C)C[C@H]4O)C(OC3OC(C)C(OC4OCC(O)C(OC5OC(CO)C(O)C(O)C5O)C4O)C(O)C3O)C2O)C(O)C(OC2OCC(O)C(O)C2O)C1O (stereo partly drawn) [Molecule 11] | display activity |
| CC(=O)OC1C(C)OC(OC2C(C)OC(OC(=O)C34CCC(C)(C)CC3C3=CCC5C6(C)CCC(OC7OC(C(=O)NC(C)(CO)CO)C(O)C(OC8OCC(O)C(O)C8O)C7OC7OC(CO)C(O)C(O)C7O)C(C)(C=NNC(=O)CCCCCN7C(=O)C=CC7=O)C6CCC5(C)C3(C)CC4O)C(OC3OC(C)C(OC4OCC(O)C(OC5OC(CO)C(O)C(O)C5O)C4O)C(O)C3O)C2O)C(O)C1OC1OCC(O)C(O)C1O (stereo not drawn) [Molecule 14] | have the capacity to enhance the cytotoxic effect |
| CC(=O)OC1C(C)OC(OC2C(C)OC(OC(=O)[C@]34CCC(C)(C)CC3C3=CCC5[C@@]6(C)CC[C@H](OC7OC(C(=O)NCCN8C(=O)C=CC8=O)C(O)C(OC8OCC(O)C(O)C8O)C7OC7OC(CO)C(O)C(O)C7O)[C@@](C)(C=O)C6CC[C@@]5(C)[C@]3(C)C[C@H]4O)C(OC3OC(C)C(OC4OCC(O)C(OC5OC(CO)C(O)C(O)C5O)C4O)C(O)C3O)C2O)C(O)C1OC1OCC(O)C(O)C1O (stereo partly drawn) [Molecule 18] | display activity |
| CC1OC(OC2C(C)OC(OC(=O)[C@]34CCC(C)(C)CC3C3=CCC5[C@@]6(C)CC[C@H](OC7OC(C(=O)NCCN8C(=O)C=CC8=O)C(O)C(OC8OCC(O)C(O)C8O)C7OC7OC(CO)C(O)C(O)C7O)[C@@](C)(C=O)C6CC[C@@]5(C)[C@]3(C)C[C@H]4O)C(OC3OC(C)C(OC4OCC(O)C(OC5OC(CO)C(O)C(O)C5O)C4O)C(O)C3O)C2O)C(O)C(OC2OCC(O)C(O)C2O)C1O (stereo partly drawn) [Molecule 19] | display activity |

system: not listed separately; assay: Critical micellar concentration (ANS fluorescence); assay type: physicochemical; conditions: SO saponins, determined in PBS, Table A7
Experimental: The critical micellar concentration (CMC) of saponins derived from Saponaria officinalis (SO) (Table A7) and derived from Quillaja saponaria (QS) (Table A8, and Table A9) was determined by the method of DeVendittis et al. (A fluorimetric method for the estimation of the critical micelle concentration of surfactants, Analytical Biochemistry, Volume 115, Issue 2, August 1981, Pages 278-286) as follows:
The emission spectrum of 8-Anilinonaphthalene-1-sulfonic acid (ANS) in either purified water (MQ) or PBS (Dulbecco's PBS+/+) was determined at dry weight concentrations of saponins ranging from 1 to 1400 μM to cover the range below and above the CMC. Above the CMC, the fluorescence yield of ANS increases and the wavelength of maximum emission decreases due to portioning of the fluorescent dye into micelles. Fluorescence yields were recorded on a Fluoroskan Ascent FL (Thermo Scientific) at an excitation wavelength of 355 nm, and an emission wavelength of 460 nm. 6 μg at a concentration of 75.86 μM of ANS were used per sample and measurement.

| Structure (SMILES) | CMC [µM] |
| --- | --- |
| CC1OC(OC2C(C)OC(OC(=O)C34CCC(C)(C)CC3C3=CCC5C6(C)CCC(OC7OC(C(=O)O)C(O)C(OC8OCC(O)C(O)C8O)C7OC7OC(CO)C(O)C(O)C7O)C(C)(C=NNC(=O)CCCCCN7C(=O)C=CC7=O)C6CCC5(C)C3(C)CC4O)C(OC3OC(C)C(OC4OCC(O)C(OC5OC(CO)C(O)C(O)C5O)C4O)C(O)C3O)C2O)C(O)C(OC2OCC(O)C(O)C2O)C1O (stereo not drawn) [SO1861-(Ald-EMCH)-(Ac—OH)] | >300 |
| CC(=O)OC1C(C)OC(OC2C(C)OC(OC(=O)C34CCC(C)(C)CC3C3=CCC5C6(C)CCC(OC7OC(C(=O)NC(C)(CO)CO)C(O)C(OC8OCC(O)C(O)C8O)C7OC7OC(CO)C(O)C(O)C7O)C(C)(C=NNC(=O)CCCCCN7C(=O)C=CC7=O)C6CCC5(C)C3(C)CC4O)C(OC3OC(C)C(OC4OCC(O)C(OC5OC(CO)C(O)C(O)C5O)C4O)C(O)C3O)C2O)C(O)C1OC1OCC(O)C(O)C1O (stereo not drawn) [SO1861-(Ald-EMCH)-(Glu-AMPD)] | >30 |
| CC1OC(OC2C(C)OC(OC(=O)[C@]34CCC(C)(C)CC3C3=CCC5[C@@]6(C)CC[C@H](OC7OC(C(=O)O)C(O)C(OC8OCC(O)C(O)C8O)C7OC7OC(CO)C(O)C(O)C7O)[C@@](C)(CO)C6CC[C@@]5(C)[C@]3(C)C[C@H]4O)C(OC3OC(C)C(OC4OCC(O)C(OC5OC(CO)C(O)C(O)C5O)C4O)C(O)C3O)C2O)C(O)C(OC2OCC(O)C(O)C2O)C1O (stereo partly drawn) [SO1861-(Ald-OH)-(Ac—OH)] | >280 |
| CC1OC(OC2C(C)OC(OC(=O)[C@]34CCC(C)(C)CC3C3=CCC5[C@@]6(C)CC[C@H](OC7OC(C(=O)NCCN8C(=O)C=CC8=O)C(O)C(OC8OCC(O)C(O)C8O)C7OC7OC(CO)C(O)C(O)C7O)[C@@](C)(CO)C6CC[C@@]5(C)[C@]3(C)C[C@H]4O)C(OC3OC(C)C(OC4OCC(O)C(OC5OC(CO)C(O)C(O)C5O)C4O)C(O)C3O)C2O)C(O)C(OC2OCC(O)C(O)C2O)C1O (stereo partly drawn) [SO1861-(Glu-AEM)-(Ald-OH)-(Ac—OH)] | >150 |

same assay, conditions: comparison in words

| Structure (SMILES) | CMC compared with native (underivatised) saponin |
| --- | --- |
| CC(=O)OC1C(C)OC(OC2C(C)OC(OC(=O)C34CCC(C)(C)CC3C3=CCC5C6(C)CCC(OC7OC(C(=O)O)C(O)C(OC8OCC(O)C(O)C8O)C7OC7OC(CO)C(O)C(O)C7O)C(C)(C=NNC(=O)CCCCCN7C(=O)C=CC7=O)C6CCC5(C)C3(C)CC4O)C(OC3OC(C)C(OC4OCC(O)C(OC5OC(CO)C(O)C(O)C5O)C4O)C(O)C3O)C2O)C(O)C1OC1OCC(O)C(O)C1O (stereo not drawn) [Molecule 2] | increased CMC |
| CC1OC(OC2C(C)OC(OC(=O)[C@]34CCC(C)(C)CC3C3=CCC5[C@@]6(C)CC[C@H](OC7OC(C(=O)NC(C)(CO)CO)C(O)C(OC8OCC(O)C(O)C8O)C7OC7OC(CO)C(O)C(O)C7O)[C@@](C)(C=O)C6CC[C@@]5(C)[C@]3(C)C[C@H]4O)C(OC3OC(C)C(OC4OCC(O)C(OC5OC(CO)C(O)C(O)C5O)C4O)C(O)C3O)C2O)C(O)C(OC2OCC(O)C(O)C2O)C1O (stereo partly drawn) [SO1861-(Ac—OH)-(Glu-AMPD)] | lower CMC values |
| CC(=O)OC1C(C)OC(OC2C(C)OC(OC(=O)C34CCC(C)(C)CC3C3=CCC5C6(C)CCC(OC7OC(C(=O)NC(C)(CO)CO)C(O)C(OC8OCC(O)C(O)C8O)C7OC7OC(CO)C(O)C(O)C7O)C(C)(C=NNC(=O)CCCCCN7C(=O)C=CC7=O)C6CCC5(C)C3(C)CC4O)C(OC3OC(C)C(OC4OCC(O)C(OC5OC(CO)C(O)C(O)C5O)C4O)C(O)C3O)C2O)C(O)C1OC1OCC(O)C(O)C1O (stereo not drawn) [SO1861-(Ald-EMCH)-(Glu-AMPD)] | lower CMC values |
| CC(=O)OC1C(C)OC(OC2C(C)OC(OC(=O)[C@]34CCC(C)(C)CC3C3=CCC5[C@@]6(C)CC[C@H](OC7OC(C(=O)NC(C)(CO)CO)C(O)C(OC8OCC(O)C(O)C8O)C7OC7OC(CO)C(O)C(O)C7O)[C@@](C)(CO)C6CC[C@@]5(C)[C@]3(C)C[C@H]4O)C(OC3OC(C)C(OC4OCC(O)C(OC5OC(CO)C(O)C(O)C5O)C4O)C(O)C3O)C2O)C(O)C1OC1OCC(O)C(O)C1O (stereo partly drawn) [SO1861-(Ald-OH)-(Glu-AMPD)] | lower CMC values |
| CC1OC(OC2C(C)OC(OC(=O)[C@]34CCC(C)(C)CC3C3=CCC5[C@@]6(C)CC[C@H](OC7OC(C(=O)NCCN8C(=O)C=CC8=O)C(O)C(OC8OCC(O)C(O)C8O)C7OC7OC(CO)C(O)C(O)C7O)[C@@](C)(C=O)C6CC[C@@]5(C)[C@]3(C)C[C@H]4O)C(OC3OC(C)C(OC4OCC(O)C(OC5OC(CO)C(O)C(O)C5O)C4O)C(O)C3O)C2O)C(O)C(OC2OCC(O)C(O)C2O)C1O (stereo partly drawn) [SO1861-(Glu-AEM)-(Ac—OH)] | lower CMC values |
| CC(=O)OC1C(C)OC(OC2C(C)OC(OC(=O)[C@]34CCC(C)(C)CC3C3=CCC5[C@@]6(C)CC[C@H](OC7OC(C(=O)NCCN8C(=O)C=CC8=O)C(O)C(OC8OCC(O)C(O)C8O)C7OC7OC(CO)C(O)C(O)C7O)[C@@](C)(CO)C6CC[C@@]5(C)[C@]3(C)C[C@H]4O)C(OC3OC(C)C(OC4OCC(O)C(OC5OC(CO)C(O)C(O)C5O)C4O)C(O)C3O)C2O)C(O)C1OC1OCC(O)C(O)C1O (stereo partly drawn) [SO1861-(Glu-AEM)-(Ald-OH)] | lower CMC values |
| CC1OC(OC2C(C)OC(OC(=O)[C@]34CCC(C)(C)CC3C3=CCC5[C@@]6(C)CC[C@H](OC7OC(C(=O)O)C(O)C(OC8OCC(O)C(O)C8O)C7OC7OC(CO)C(O)C(O)C7O)[C@@](C)(C=O)C6CC[C@@]5(C)[C@]3(C)C[C@H]4O)C(OC3OC(C)C(OC4OCC(O)C(OC5OC(CO)C(O)C(O)C5O)C4O)C(O)C3O)C2O)C(O)C(OC2OCC(O)C(O)C2O)C1O (stereo partly drawn) [SO1861-Ac—OH] | higher CMC values |
| CC(=O)OC1C(C)OC(OC2C(C)OC(OC(=O)[C@]34CCC(C)(C)CC3C3=CCC5[C@@]6(C)CC[C@H](OC7OC(C(=O)O)C(O)C(OC8OCC(O)C(O)C8O)C7OC7OC(CO)C(O)C(O)C7O)[C@@](C)(CO)C6CC[C@@]5(C)[C@]3(C)C[C@H]4O)C(OC3OC(C)C(OC4OCC(O)C(OC5OC(CO)C(O)C(O)C5O)C4O)C(O)C3O)C2O)C(O)C1OC1OCC(O)C(O)C1O (stereo partly drawn) [SO1861-Ald-OH] | higher CMC values |
| CC(=O)OC1C(C)OC(OC2C(C)OC(OC(=O)[C@]34CCC(C)(C)CC3C3=CCC5[C@@]6(C)CC[C@H](OC7OC(C(=O)NC(C)(CO)CO)C(O)C(OC8OCC(O)C(O)C8O)C7OC7OC(CO)C(O)C(O)C7O)[C@@](C)(C=O)C6CC[C@@]5(C)[C@]3(C)C[C@H]4O)C(OC3OC(C)C(OC4OCC(O)C(OC5OC(CO)C(O)C(O)C5O)C4O)C(O)C3O)C2O)C(O)C1OC1OC(C)C(O)C(O)C1O (stereo partly drawn) [SO1861-Glu-AMPD] | lower CMC values |

same assay, conditions: comparison in words; listed as SO1861-(Ald-EMCH)—(Ac—OH)

| Structure (SMILES) | CMC compared with native (underivatised) saponin |
| --- | --- |
| CC1OC(OC2C(C)OC(OC(=O)C34CCC(C)(C)CC3C3=CCC5C6(C)CCC(OC7OC(C(=O)O)C(O)C(OC8OCC(O)C(O)C8O)C7OC7OC(CO)C(O)C(O)C7O)C(C)(C=NNC(=O)CCCCCN7C(=O)C=CC7=O)C6CCC5(C)C3(C)CC4O)C(OC3OC(C)C(OC4OCC(O)C(OC5OC(CO)C(O)C(O)C5O)C4O)C(O)C3O)C2O)C(O)C(OC2OCC(O)C(O)C2O)C1O (stereo not drawn) [SO1861-(Ald-EMCH)-(Ac—OH)] | increased CMC values |

same assay, conditions: comparison in words; listed as SO1861-(Ald-OH)—(Ac—OH)

| Structure (SMILES) | CMC compared with native (underivatised) saponin |
| --- | --- |
| CC1OC(OC2C(C)OC(OC(=O)[C@]34CCC(C)(C)CC3C3=CCC5[C@@]6(C)CC[C@H](OC7OC(C(=O)O)C(O)C(OC8OCC(O)C(O)C8O)C7OC7OC(CO)C(O)C(O)C7O)[C@@](C)(CO)C6CC[C@@]5(C)[C@]3(C)C[C@H]4O)C(OC3OC(C)C(OC4OCC(O)C(OC5OC(CO)C(O)C(O)C5O)C4O)C(O)C3O)C2O)C(O)C(OC2OCC(O)C(O)C2O)C1O (stereo partly drawn) [SO1861-(Ald-OH)-(Ac—OH)] | increased CMC values |
